Experimental data: US8563565B2, “Pyrazoloquinoline derivatives” (Eisai R&D Management Co., Ltd., priority 2011, dated 2013)
pIC50: −log10 of the molar value.

Each compound was assayed against T1, human recombinant PDE9 protein (Homo sapiens, UniProt O76083) (assay: PDE9 inhibitory activity test (measurement of PDE9 inhibitory action, [3H]-cGMP)). Details: PDE9 IC50, human recombinant PDE9, 30° C., 10 min.
T1 construct: His-tag (inferred from the Ni column purification; a myc His-tag vector is named only for the HEK293 expression check); made in house; host or cells: silkworm (pYNG vector, Katakura Industries)
T1 sequence (O76083 whole entry): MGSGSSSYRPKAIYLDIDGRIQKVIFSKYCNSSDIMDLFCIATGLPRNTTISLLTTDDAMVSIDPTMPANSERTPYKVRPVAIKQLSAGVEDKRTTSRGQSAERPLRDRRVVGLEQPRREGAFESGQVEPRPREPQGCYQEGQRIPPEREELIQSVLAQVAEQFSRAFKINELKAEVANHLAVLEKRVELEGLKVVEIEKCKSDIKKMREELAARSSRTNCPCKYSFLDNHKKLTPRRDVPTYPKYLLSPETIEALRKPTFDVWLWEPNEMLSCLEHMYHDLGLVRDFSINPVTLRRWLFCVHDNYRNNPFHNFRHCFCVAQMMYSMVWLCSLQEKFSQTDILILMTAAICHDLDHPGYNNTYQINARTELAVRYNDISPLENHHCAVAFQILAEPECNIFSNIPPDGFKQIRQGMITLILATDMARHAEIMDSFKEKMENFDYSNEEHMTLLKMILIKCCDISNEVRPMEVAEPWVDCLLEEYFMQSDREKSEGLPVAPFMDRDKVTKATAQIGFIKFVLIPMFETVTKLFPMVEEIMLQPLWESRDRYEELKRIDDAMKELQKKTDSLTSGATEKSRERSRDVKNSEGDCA
Format: biochemical
Excerpt: 1) Preparation of a Human Recombinant PDE9 Protein
An hsPDE9A 1cDNA fragment was amplified by being based on a base sequence (Accession No.: AF048837) of the hsPDE9A1 registered on GenBank data base, and by using the following sequences (Hokkaido System Science Co., Ltd.) as a primer and Human hippocampus cDNA library (Clontech Laboratories, Inc.) as a template DNA, and using Pfu50 DNA polymerase (Invitrogen Corp.), and by a polymerase chain reaction (PCR) of the following condition.
The condition of PCR: [96° C., 5 min]×1 cycle, [(96° C., 10 sec), (57° C., 5 sec), (72° C., 2 min)]×30 cycles
The obtained hsPDE9A 1 cDNA fragment was incorporated in a TOPO-TA cloning vector (Invitrogen Corp.), and the base sequence was checked; and thereafter, the resultant was transfected in a pcDNA 3.1/myc His-tag vector (Invitrogen Corp.) to thereby make a human PDE9 expression vector for mammal cells. The human PDE9 expression vector for mammal cells was transfected with transient expression to an HEK293 cell by using a LIPOFETAMINE 2000 Reagent (Gibco). It was confirmed by Western blot method that the PDE9A expressed in the HEK293 cell, and then, the human PDE9A 1cDNA fragment was transfected in a pYNG vector (Katakura Industries Co., Ltd.) to thereby make an expression vector for insect cells. A supernatant of homogenized silk worm in which a large amount of PDE9 was expressed was purified by an equilibrated Ni column using a buffer A (20 mmol/L Tris-HCl, pH: 8.0, 1 mmol/L DTT, 10 mmol/L imidazole). After 1 hour of mixing of the supernatant and the Ni column, cleaning was carried out using a buffer B (20 mmol/L Tris-HCl, pH: 8.0, 1 mmol/L […]), and elution was carried out using a buffer C (20 mmol/L Tris-HCl, pH: 8.0, 1 mmol/L DTT, 100 mmol/L imidazole). An elution fraction was preparatively collected to thereby obtain a PDE9 enzyme solution.
2) Measurement of PDE9 Inhibitory Action
To 100 μL of a buffer D (40 mmol/L Tris-HCl, pH: 7.4, 10 mmol/L MgCl2, 1 mM DTT, 2 μM cGMP) solution containing [^3H]-cGMP ([…]/mL), 10 μL of a compound solution for evaluation (a solution in which a compound was dissolved in DMSO and diluted so that the DMSO concentration became 5%) and 90 μL of a solution prepared by diluting the PDE9 enzyme solution prepared in the above with a buffer E (40 mmol/L Tris-HCl, pH: 7.4, 10 mmol/L MgCl2, 1 mM DTT, 1 mmol/L EGTA) were added under ice cooling. The resultant mixed solution was incubated at 30° C. for 10 min, and thereafter heated for 2 min in boiled water to stop the enzyme reaction of the PDE9. Then, the resultant was returned to room temperature; 50 μL of 5′-Nucleotidase (Biomol GmbH, 10 units/mL) was added thereto; and the resultant was incubated at 30° C. for 10 min to thereby convert [^3H]-5′-GMP formed in the previous reaction to [^3H]-guanosine. 500 μL of an anion exchange resin (Bio-Rad AG1-X2 resin, mesh size: 200-400, H2O:resin=2:1) was added to the resultant reaction liquid, and allowed to stand for 10 min, and thereafter centrifuged (2,000 rpm, 10 min); and a supernatant in which the [^3H]-guanosine was present was transferred to a LumaPlate (PerkinElmer, Inc.), and the radioactivity was measured by a TopCount NXT microplate scintillation and luminescence counter (PerkinElmer, Inc.).
The inhibition percentage of the evaluation compound was calculated using the following expression, taking the radioactivity of a control containing no evaluation compound to be (A), the radioactivity of a blank containing no enzyme to be (B), and the radioactivity of the evaluation compound to be (C). Inhibition percentage=100−{[(C)−(B)]/[(A)−(B)]}×100(%)
The IC50 value for PDE9 of the evaluation compound was determined from inhibition percentage for various concentrations.

| Compound | pIC50 |
| --- | --- |
| COc1nc(C)cc(C)c1-c1ccc2c(c1)[nH]c(=O)c1cnn([C@@H]3COC[C@H]3OC)c12 (racemic) [Example 60, 7-(2-methoxy-4,6-dimethylpyridin-3-yl)-1-[(3RS,4SR)-4-methoxytetrahydrofuran-3-yl]-1H-pyrazolo[4,3-c]quinolin-4(5H)-one] | 7.51 |
| COc1ncc(C)c(-c2ccc3c(c2)[nH]c(=O)c2cnn([C@@H]4COC[C@H]4OC)c23)c1C (racemic) [Example 61, 7-(2-methoxy-3,5-dimethylpyridin-4-yl)-1-[(3RS,4SR)-4-methoxytetrahydrofuran-3-yl]-1H-pyrazolo[4,3-c]quinolin-4(5H)-one] | 7.11 |
| COc1nc(C)cc(C)c1-c1ccc2c(c1)[nH]c(=O)c1cnn(C3CCOC3)c12 (single isomer, unassigned) [28 (+)] | 7.53 |
| COc1cc(C)c(-c2ccc3c(c2)[nH]c(=O)c2cnn(C4CCOC4)c23)c(C)n1 (single isomer, unassigned) [29 (+)] | 6.86 |
| COc1nc(CF)cc(C)c1-c1ccc2c(c1)[nH]c(=O)c1cnn(C3CCOC3)c12 (single isomer, unassigned) [31 (+)] | 7.70 |
| COc1nccc(C)c1-c1ccc2c(c1)[nH]c(=O)c1cnn(C3CCOC3)c12 (single isomer, unassigned) [32 (+)] | 7.15 |
| COc1ncc(C)c(-c2ccc3c(c2)[nH]c(=O)c2cnn(C4CCCOC4)c23)c1C (single isomer, unassigned) [36 (+)] | 8.05 |
| COc1cc(C)c(-c2ccc3c(c2)[nH]c(=O)c2cnn(C4CCCOC4)c23)c(C)n1 (single isomer, unassigned) [37 (+)] | 7.96 |
| COc1cc(C)c(-c2ccc3c(c2)[nH]c(=O)c2cnn(C4CCCOC4)c23)c(C)n1 (single isomer, unassigned) [37 (−)] | 8.00 |
| COc1cc(C)c(-c2ccc3c(c2)[nH]c(=O)c2cnn(C4CCCOC4)c23)c(CF)n1 (single isomer, unassigned) [38 (+)] | 7.77 |
| COc1cc(C)c(-c2ccc3c(c2)[nH]c(=O)c2cnn(C4CCCOC4)c23)c(CF)n1 (single isomer, unassigned) [38 (−)] | 7.91 |
| COc1cc(C)c(-c2ccc3c(c2)[nH]c(=O)c2cnn(C4CCCOCC4)c23)c(C)c1 (single isomer, unassigned) [42 (−)] | 7.66 |
| Cc1cccc(C)c1-c1ccc2c(c1)[nH]c(=O)c1cnn(C3CCOC3)c12 (single isomer, unassigned; (+)) [33 (+), (+)-7-(2,6-dimethylphenyl)-1-(tetrahydrofuran-3-yl)-1H-pyrazolo[4,3-c]quinolin-4(5H)-one] | 6.95 |

Continued by rising pIC50, values first:

| pIC50 | Compound |
| --- | --- |
| 8.06 | COc1cc(C)c(-c2ccc3c(c2)[nH]c(=O)c2cnn(C4CCCOCC4)c23)c(C)c1 (single isomer, unassigned) [42 (+)] |
| 8.09 | COc1ncc(C)c(-c2ccc3c(c2)[nH]c(=O)c2cnn(C4CCCOC4)c23)c1C (single isomer, unassigned) [36 (−)] |
| 8.13 | COc1nc(CF)cc(C)c1-c1ccc2c(c1)[nH]c(=O)c1cnn(C3CCOC3)c12 (single isomer, unassigned) [31 (−)] |
| 8.29 | COc1nccc(C)c1-c1ccc2c(c1)[nH]c(=O)c1cnn(C3CCCOC3)c12 (single isomer, unassigned) [39 (+)] |
| 8.39 | COc1nccc(C)c1-c1ccc2c(c1)[nH]c(=O)c1cnn(C3CCCOC3)c12 (single isomer, unassigned) [39 (−)] |
| 8.41 | COc1nc(C)cc(C)c1-c1ccc2c(c1)[nH]c(=O)c1cnn(C3CCCOC3)c12 (single isomer, unassigned; (+)) [34 (+), (+)-7-(2-methoxy-4,6-dimethylpyridin-3-yl)-1-(tetrahydro-2H-pyran-3-yl)-1H-pyrazolo[4,3-c]quinolin-4(5H)-one] |
| 8.53 | COc1nc(CF)cc(C)c1-c1ccc2c(c1)[nH]c(=O)c1cnn(C3CCCOC3)c12 (single isomer, unassigned) [35 (−)] |
| 8.58 | COc1nc(CF)cc(C)c1-c1ccc2c(c1)[nH]c(=O)c1cnn(C3CCCOC3)c12 (single isomer, unassigned) [35 (+)] |
